Measured values as given in patent US10988477B2 (Merck Patent GmbH, priority 2018, dated 2021).
pIC50, pKi: −log10 of the molar value. Where two headings read alike, the source gives them in different places.

Tests used:
[1] = target: intracellular GCN2 (phosphorylation of the GCN2 substrate eIF2α) (Homo sapiens, UniProt Q9P2K8); test: GCN2 cellular inhibition assay (AlphaScreen SureFire P-eIF2α Ser51, borrelidin-treated U2OS cells); format: cell-based
Summary of the method: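 U2OS cells adhered overnight, then treated with compounds (4-fold serial dilutions from 40 μM final) plus borrelidin 10 μM final for 1 h at 37 °C. Lysate eIF2α Ser51 phosphorylation measured by AlphaScreen SureFire. Percent inhibition calculated relative to borrelidin-only wells.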

GCN2 kinase = GCN2 kinase (Homo sapiens, UniProt Q9P2K8); test: GCN2 enzyme inhibition assay (Transcreener ADP2 fluorescence polarization); format: biochemical; details: 280 μM ATP
Sequence of GCN2 kinase (Q9P2K8 whole entry): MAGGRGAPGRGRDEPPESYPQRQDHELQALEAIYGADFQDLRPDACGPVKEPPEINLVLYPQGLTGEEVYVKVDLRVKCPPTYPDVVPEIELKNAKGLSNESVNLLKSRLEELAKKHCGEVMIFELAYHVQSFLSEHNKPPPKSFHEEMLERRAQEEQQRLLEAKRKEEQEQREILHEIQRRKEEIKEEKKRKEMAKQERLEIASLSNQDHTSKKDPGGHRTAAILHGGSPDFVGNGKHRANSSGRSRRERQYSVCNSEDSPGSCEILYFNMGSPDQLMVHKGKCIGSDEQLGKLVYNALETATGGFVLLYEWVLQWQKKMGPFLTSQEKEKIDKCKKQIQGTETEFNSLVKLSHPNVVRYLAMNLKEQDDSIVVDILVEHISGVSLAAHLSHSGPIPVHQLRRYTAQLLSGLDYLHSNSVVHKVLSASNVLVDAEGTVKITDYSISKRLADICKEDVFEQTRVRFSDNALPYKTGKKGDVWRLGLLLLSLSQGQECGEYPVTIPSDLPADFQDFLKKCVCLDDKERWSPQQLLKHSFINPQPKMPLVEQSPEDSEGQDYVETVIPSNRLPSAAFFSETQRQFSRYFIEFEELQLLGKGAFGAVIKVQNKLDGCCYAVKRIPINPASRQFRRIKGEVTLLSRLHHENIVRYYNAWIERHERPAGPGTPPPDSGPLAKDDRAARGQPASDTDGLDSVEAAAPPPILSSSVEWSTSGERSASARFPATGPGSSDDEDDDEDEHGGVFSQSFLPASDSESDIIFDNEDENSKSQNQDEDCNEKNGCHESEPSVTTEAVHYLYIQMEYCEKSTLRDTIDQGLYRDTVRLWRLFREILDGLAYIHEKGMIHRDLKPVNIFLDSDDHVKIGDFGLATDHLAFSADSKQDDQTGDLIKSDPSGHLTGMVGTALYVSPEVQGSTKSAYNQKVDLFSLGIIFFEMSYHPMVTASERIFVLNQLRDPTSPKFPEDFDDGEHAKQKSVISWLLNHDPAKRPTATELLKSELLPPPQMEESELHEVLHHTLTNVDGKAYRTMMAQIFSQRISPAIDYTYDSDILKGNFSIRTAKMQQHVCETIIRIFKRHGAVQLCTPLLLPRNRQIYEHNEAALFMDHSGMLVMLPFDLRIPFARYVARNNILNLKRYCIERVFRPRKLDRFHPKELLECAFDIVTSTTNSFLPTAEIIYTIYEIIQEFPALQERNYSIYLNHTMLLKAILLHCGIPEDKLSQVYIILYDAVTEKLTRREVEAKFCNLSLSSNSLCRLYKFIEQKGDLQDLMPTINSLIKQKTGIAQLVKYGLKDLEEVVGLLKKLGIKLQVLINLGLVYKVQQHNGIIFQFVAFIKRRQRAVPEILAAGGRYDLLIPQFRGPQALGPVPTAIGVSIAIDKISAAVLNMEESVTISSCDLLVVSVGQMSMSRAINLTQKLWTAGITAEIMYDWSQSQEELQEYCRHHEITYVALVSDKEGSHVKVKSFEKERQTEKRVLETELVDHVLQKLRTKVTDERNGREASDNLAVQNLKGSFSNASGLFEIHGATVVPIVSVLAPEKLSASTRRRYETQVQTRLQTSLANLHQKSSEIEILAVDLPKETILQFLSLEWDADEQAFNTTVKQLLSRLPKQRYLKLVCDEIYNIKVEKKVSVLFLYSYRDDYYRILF
Summary of the method: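 Human GCN2 (4 nM) preincubated 10 min with compound (0–8 μM) and 200 μM (RS)7 peptide in Tris-HCl pH 7.5, NaCl, MgCl2, DTT. Reaction started with 280 μM ATP, run 1 h at 25 °C. ADP detected by Transcreener fluorescence polarization. IC50 and Ki(app) fitted by tight-binding algorithm.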

[2] = compounds of Formula II, biomarker assay, phosphorylated eIF2α Ser51 in borrelidin-treated U2OS cells
[3] = compounds of Formula II, 4 nM GCN2 kinase
[4] = compounds of Formula IV, biomarker assay, phosphorylated eIF2α Ser51 in borrelidin-treated U2OS cells
[5] = Enzyme activity for compounds of Formula IV, Ki(app), 25° C.

Sequence of intracellular GCN2 (phosphorylation of the GCN2 substrate eIF2α) (Q9P2K8 whole entry): as above

| Compound | pIC50 [1, 2] | pKi (GCN2 kinase; [3]) | pIC50 [1, 4] | further results |
| --- | --- | --- | --- | --- |
| CC1C(CNS(C)(=O)=O)CC(F)(F)CN1c1cc(-c2cnc3ccc(C(F)F)nn23)ncn1 (stereo not shown) [II-329, N-((1-(6-(6-(Difluoromethyl)imidazo[1,2-b]pyridazin-3-yl)pyrimidin-4-yl)-5,5-difluoro-2-methylpiperidin-3-yl)methyl)methanesulfonamide] | > 6.30 | > 8.00 | – | – |
| CS(=O)(=O)N1CCCC2(CN(c3cc(-c4cnc5ccc(C(F)F)nn45)ncn3)C2)C1 [II-279, 6-(Difluoromethyl)-3-(6-(6-(methylsulfonyl)-2,6-diazaspiro[3.5]nonan-2-yl)pyrimidin-4-yl)imidazo[1,2-b]pyridazine] | < 5.30 | 6.00 to 8.00 | – | – |
| Cc1noc([C@@H]2CN(c3cc(-c4cnc5ccc(C(F)(F)F)nn45)ccn3)C[C@H](C)O2)n1 [II-739] | > 6.30 | 6.00 to 8.00 | – | – |
| CC1C(c2cn[nH]c2)NCCN1c1ccnc(-c2cnc3cnc(Cl)cn23)n1 (single isomer, unassigned) [IV-230, 6-Chloro-3-(4-(2-methyl-3-(1H-pyrazol-4-yl)piperazin-1-yl)pyrimidin-2-yl)imidazo[1,2-a]pyrazine] | – | – | 5.30 to 6.30 | pKi (GCN2 kinase; [5]): > 8.00 |
| CC1CCC(CNS(C)(=O)=O)CN1c1cc(-c2cnc3ccc(C(F)F)nn23)ncn1 (stereo not shown) [II-248, N-((1-(6-(6-(Difluoromethyl)imidazo[1,2-b]pyridazin-3-yl)pyrimidin-4-yl)-6-methylpiperidin-3-yl)methyl)methanesulfonamide] | 5.30 to 6.30 | 6.00 to 8.00 | – | – |
| FC(F)c1ccc2ncc(-c3cc(C4CCCN(C5COC5)C4)ncn3)n2n1 (single isomer, unassigned) [II-242, 6-(Difluoromethyl)-3-(6-(1-(oxetan-3-yl)piperidin-3-yl)pyrimidin-4-yl)imidazo[1,2-b]pyridazine] | < 5.30 | 6.00 to 8.00 | – | – |
| CS(=O)(=O)NCC1CN(c2cc(-c3cnc4ccc(C(F)F)nn34)ncn2)CC2(CC2)O1 (stereo not shown) [II-383, N-((7-(6-(6-(Difluoromethyl)imidazo[1,2-b]pyridazin-3-yl)pyrimidin-4-yl)-4-oxa-7-azaspiro[2.5]octan-5-yl)methyl)methanesulfonamide] | 5.30 to 6.30 | 6.00 to 8.00 | – | – |
| NC(=O)CCC1CCCN(c2ccnc(-c3cnc4cnc(C(F)F)cn34)n2)C1 (stereo not shown) [IV-45, 3-(1-(2-(6-(Difluoromethyl)imidazo[1,2-a]pyrazin-3-yl)pyrimidin-4-yl)piperidin-3-yl)propanamide] | – | – | < 5.30 | pKi (GCN2 kinase; [5]): 6.00 to 7.00 |
| Cc1cc(N2CC(C)NC(c3cn[nH]c3)C2C)nc(-c2cnc3cnc(C(F)(F)F)cn23)n1 (single isomer, unassigned) [IV-669, 3-(4-(2,5-Dimethyl-3-(1H-pyrazol-4-yl)piperazin-1-yl)-6-methylpyrimidin-2-yl)-6-(trifluoromethyl)imidazo[1,2-a]pyrazine] | – | – | < 5.30 | pKi (GCN2 kinase; [5]): 6.00 to 7.00 |
| NS(=O)(=O)CC1CCCN(c2ccnc(-c3cnc4cnc(C(F)F)cn34)n2)C1 (stereo not shown) [IV-114, (1-(2-(6-(Difluoromethyl)imidazo[1,2-a]pyrazin-3-yl)pyrimidin-4-yl)piperidin-3-yl)methanesulfonamide] | – | – | < 5.30 | pKi (GCN2 kinase; [5]): 6.00 to 7.00 |
| CS(=O)(=O)NC[C@@H]1CCCN(c2cc(-c3cnc4ccc(C(F)F)nn34)ccn2)C1 [II-155, (R)—N-((1-(4-(6-(Difluoromethyl)imidazo[1,2-b]pyridazin-3-yl)pyridin-2-yl)piperidin-3-yl)methyl)methanesulfonamide] | 5.30 to 6.30 | 6.00 to 8.00 | – | – |
| C[C@@H]1C[C@@H](c2c[nH]nc2F)CN(c2ccnc(-c3cnc4cnc(C(F)(F)F)cn34)n2)C1 [IV-765] | – | – | > 6.30 | pIC50 (GCN2 kinase; compounds of Formula IV, 4 nM GCN2 kinase): 6.00 to 8.00 |
| FC(F)(F)c1cn2c(-c3nccc(N4CCO[C@H](c5cn[nH]c5)C4)n3)cnc2s1 (stereo in doubt) [Compound V-3, 2-(1H-Pyrazol-4-yl)-4-(2-(2-(trifluoromethyl)imidazo[2,1-b]thiazol-5-yl)pyrimidin-4-yl)morpholine] | – | – | – | pIC50 ([1]; compounds of Formula V, U2OS cells, 10 μM borrelidin, 1 h, read-out: GCN2 Biomarker (IC50)): > 6.30; pKi (GCN2 kinase; compounds of Formula V, 4 nM GCN2 kinase): > 8.00 |
| CC1C(CS(C)(=N)=O)CCCN1c1cc(-c2cnc3ccc(C(F)F)nn23)ncn1 (stereo not shown) [II-487, ((1-(6-(6-(Difluoromethyl)imidazo[1,2-b]pyridazin-3-yl)pyrimidin-4-yl)-2-methylpiperidin-3-yl)methyl)(imino)(methyl)-λ^6-sulfanone] | > 6.30 | 6.00 to 8.00 | – | – |
| Clc1ccc2ncc(-c3ccnc(N4CCOCC4)c3)n2n1 [II-194, 4-(4-(6-Chloroimidazo[1,2-b]pyridazin-3-yl)pyridin-2-yl)morpholine] | < 5.30 | 6.00 to 8.00 | – | – |
| CC1CN(c2ccnc(-c3cnc4cnc(C(F)(F)F)cn34)n2)C(C)C(c2cn[nH]c2)N1 (stereo not shown) [IV-222, 3-(4-(2,5-Dimethyl-3-(1H-pyrazol-4-yl)piperazin-1-yl)pyrimidin-2-yl)-6-(trifluoromethyl)imidazo[1,2-a]pyrazine] | – | – | > 6.30 | pKi (GCN2 kinase; [5]): > 8.00 |
| CC(=O)NCC1CCCN(c2cc(-c3cnc4ccc(C(F)F)nn34)ncn2)C1 (stereo not shown) [II-261, N-((1-(6-(6-(Difluoromethyl)imidazo[1,2-b]pyridazin-3-yl)pyrimidin-4-yl)piperidin-3-yl)methyl)acetamide] | 5.30 to 6.30 | 6.00 to 8.00 | – | – |
| N#Cc1n[nH]cc1C1=CCCN(c2ccnc(-c3cnc4cnc(C(F)(F)F)cn34)n2)C1 [IV-548, 4-(1-(2-(6-(Trifluoromethyl)imidazo[1,2-a]pyrazin-3-yl)pyrimidin-4-yl)-1,2,5,6-tetrahydropyridin-3-yl)-1H-pyrazole-3-carbonitrile] | – | – | 5.30 to 6.30 | pKi (GCN2 kinase; [5]): > 8.00 |
| C[C@H]1CN(c2cc(-c3cnc4ccc(C(F)F)nn34)ncc2F)C[C@@H](CNS(C)(=O)=O)C1(F)F [II-270, N-[[(3S,5S)-1-[2-[6-(Difluoromethyl)imidazo[1,2-b]pyridazin-3-yl]-5-fluoro-4-pyridyl]-4,4-difluoro-5-methyl-3-piperidyl]methyl]methanesulfonamide] | 5.30 to 6.30 | > 8.00 | – | – |
| COCCNc1cc(-c2cnc3ccc(C(F)F)nn23)cc(N2CCCC(CNS(C)(=O)=O)C2)n1 (stereo not shown) [II-89, N-((1-(4-(6-(Difluoromethyl)imidazo[1,2-b]pyridazin-3-yl)-6-((2-methoxyethyl)amino)pyridin-2-yl)piperidin-3-yl)methyl)methanesulfonamide] | 5.30 to 6.30 | > 8.00 | – | – |
| CC1CC(F)(F)C(CNS(C)(=O)=O)CN1c1cc(-c2cnc3ccc(C(F)F)nn23)ncn1 (stereo not shown) [II-434, N-((1-(6-(6-(Difluoromethyl)imidazo[1,2-b]pyridazin-3-yl)pyrimidin-4-yl)-4,4-difluoro-6-methylpiperidin-3-yl)methyl)methanesulfonamide] | < 5.30 | 6.00 to 8.00 | – | – |
| OC[C@H]1C[C@@H](C(F)(F)F)CN(c2cc(-c3cnc4ccc(C(F)F)nn34)ncn2)C1 [II-315, ((3S,5R)-1-(6-(6-(Difluoromethyl)imidazo[1,2-b]pyridazin-3-yl)pyrimidin-4-yl)-5-(trifluoromethyl)piperidin-3-yl)methanol] | < 5.30 | 6.00 to 8.00 | – | – |
| CN1CC2(C1)CN(c1cc(-c3cnc4ccc(C(F)F)nn34)cc(N3CCCC(CNS(C)(=O)=O)C3)n1)C2 (stereo not shown) [II-72, N-((1-(4-(6-(Difluoromethyl)imidazo[1,2-b]pyridazin-3-yl)-6-(6-methyl-2,6-diazaspiro[3.3]heptan-2-yl)pyridin-2-yl)piperidin-3-yl)methyl)methanesulfonamide] | > 6.30 | > 8.00 | – | – |
| FC(F)(F)c1cn2c(-c3nccc(N4CCC5(CC4)CNC5)n3)cnc2cn1 [IV-692, 3-(4-(2,7-Diazaspiro[3.5]nonan-7-yl)pyrimidin-2-yl)-6-(trifluoromethyl)imidazo[1,2-a]pyrazine] | – | – | < 5.30 | pKi (GCN2 kinase; [5]): 6.00 to 7.00 |
| CC1CN(c2ncc(F)c(-c3cnc4cnc(C(F)(F)F)cn34)n2)C(C)C(c2cn[nH]c2)N1 (stereo not shown) [IV-421, 3-(2-(2,5-Dimethyl-3-(1H-pyrazol-4-yl)piperazin-1-yl)-5-fluoropyrimidin-4-yl)-6-(trifluoromethyl)imidazo[1,2-a]pyrazine] | – | – | 5.30 to 6.30 | pKi (GCN2 kinase; [5]): 7.00 to 8.00 |
| CC1C(CNS(C)(=O)=O)CCCN1c1cc(-c2cnc3ccc(C(F)F)nn23)ncn1 (single isomer, unassigned) [II-264, N-((1-(6-(6-(Difluoromethyl)imidazo[1,2-b]pyridazin-3-yl)pyrimidin-4-yl)-2-methylpiperidin-3-yl)methyl)methanesulfonamide] | < 5.30 | 6.00 to 8.00 | – | – |
| C[C@H]1COCCN1c1cc(-c2cnc3ccc(C(F)F)nn23)ncn1 [II-325, (S)-4-(6-(6-(Difluoromethyl)imidazo[1,2-b]pyridazin-3-yl)pyrimidin-4-yl)-3-methylmorpholine] | 5.30 to 6.30 | 6.00 to 8.00 | – | – |
| CC1C(CNS(C)(=O)=O)OC(C)(C)CN1c1cc(-c2cnc3ccc(C(F)F)nn23)ncn1 (single isomer, unassigned) [II-484, N-((4-(6-(6-(Difluoromethyl)imidazo[1,2-b]pyridazin-3-yl)pyrimidin-4-yl)-3,6,6-trimethylmorpholin-2-yl)methyl)methanesulfonamide] | 5.30 to 6.30 | 6.00 to 8.00 | – | – |
| C[C@H]1CN(c2cc(-c3cnc4ccc(C(F)F)nn34)ncn2)C[C@@H](CNS(C)(=O)=O)C1(F)F [II-36, N-[[(3S,5S)-1-[6-[6-(Difluoromethyl)imidazo[1,2-b]pyridazin-3-yl]pyrimidin-4-yl]-4,4-difluoro-5-methyl-3-piperidyl]methyl]methanesulfonamide] | > 6.30 | > 8.00 | – | – |
